Experimental data taken from patent US20090149453A1, “METHODS AND COMPOSITIONS FOR TREATING BACTERIAL INFECTIONS AND DISEASES ASSOCIATED THEREWITH” (ACTIVBIOTICS PHARMA LLC, priority 2002, published 2009).
Values after ≈ are worked out from the molar mass of the structure shown. “Also recorded” adds a separate entry of the source. Read-outs that look alike come from different tables or passages of the source.

Key:
Type in all cases: cell-based, Staphylococcus aureus
[1] = test system: S. aureus strain ATCC 29213, log-phase; test: Viability (cfu/ml) of log-phase cultures exposed to drugs, plated on non-selective MHA; details: for decrease in cfu/ml: drug alone: Rif 0.1 μg/ml (initial drop), Van 10 μg/ml
[2] = test system: S. aureus 29213, stationary-phase; test: Rif-resistant cfu/ml in drug-treated stationary-phase cultures; details: Example 3, stationary-phase, Van or Rfz alone; Van 15 μg/ml plus Rfz 0.1 μg/ml
Description: The emergence of Rif/Rfz-resistant cells in cultures in these experiments was monitored as previously described; the results are shown in FIG. 6.
(§1) For stationary phase studies, cultures were grown to an optical density of 2.2 to 2.4 at 600 nm, which represents approximately 5×10^9 cfu/ml; there would exist approximately 50 resistant mutants per nil in such a stationary phase culture. Drugs were added to the cultures to start the experiment, and then aliquots were removed at various time points, diluted in MHB if appropriate, and applied to 100 mm MHA and MHA plates containing Rif at 1 μg/ml. These plates were incubated at 35° C. for 18-24 hours, and then colonies manually counted to determine the number of cfu per nil of culture for the specific time-point/treatment. […] The Rif-containing plates were used to determine the number of Rfz-resistant bacteria present in the cultures for the specific time-point/treatment. Untreated control cultures were included in each experiment.

[3] = test system: S. aureus 29213, stationary-phase; test: Viability (cfu/ml) of stationary-phase cultures exposed to drugs; details: for killing effect against stationary phase cultures (summary, words): stationary phase (non-multiplying), alone or in combination; for log killing of stationary-phase cultures: summary, over 48 hours, single drugs or combination
Description: Cultures of S. aureus 29213 were grown to stationary-phase (an OD of 2.2 to 2.4 at 600 nm), then treated with Van and Rfz, either alone or in combination (FIG. 5; concentrations listed are in μg/ml). Rfz was used at 0.1 μg/ml, while Van was used at 15 μg/ml and 30 μg/ml, the latter concentration based on the fact that the starting culture was at a much higher density than was the log-phase cultures used in the experiments described above. It was assumed that more Van might be required to give a prolonged killing effect. In addition, one culture was treated with 15 μg/ml Van at the start of the experiment and then again 24 hours later. At 0, 24 and 48 hours, the number of viable cells was determined by plating on non-selective medium as described above.
The bacterial strain used in this study was “wild-type” S. aureus strain ATCC 29213. The strain was grown in Mueller Hinton II Broth (MHB; cationadjusted; VWR) and on Mueller Hinton Agar (MHA; VWR) plates that were made according to the manufacturer's instructions. Van (Calbiochem) was resuspended in sterile water (Fisher) at 10 mg/ml, while Rif (Calbiochem) and Rfz (ActivBiotics) were resuspended in 100% DMSO (J. T. Baker) at 1 mg/ml. All drugs were stored at −80° C. in single-use aliquots.
S. aureus strain ATCC 29213 was grown on an MHA plate at 35° C. for 18 hours. Colonies (3-5) were used to inoculate 50-100 ml of cation-adjusted MHB in a 500 ml Ehrlenmeyer flask and grown at 37° C. in a water bath shaker at 240 rpm.
as §1

[4] = test system: S. aureus strain ATCC 29213, log-phase
Description: In order to characterize the population of the cultures shown in FIG. 1, aliquots at the various time points/treatments were tested for the presence of Rif-resistant mutants.
Cultures were also examined as described above for the number of cfu/ml present that were resistant to Rif (FIG. 4).
(§2) For log-phase studies, cells were grown to an optical density of 0.5 at 600 nm, which represents a culture density of 5×10^8 colony forming units (cfu)/ml for S. aureus and deviates from densities typically used in time-kill type assays (1×10^7 cfu/ml). We chose to start at a higher density because this density is more likely to reflect in vivo bioburden than lower starting densities. In addition, this starting density is critical for monitoring the emergence of ansamycin-resistant mutants because it insures that there is a starting resident population of such resistant mutants at the start of the experiment. The 10^−8 frequency of mutants to Rfz leads to a theoretical number of five mutants per ml of culture at this cell density.
as §1

[5] = test system: S. aureus 29213; test: MIC testing according to NCCLS standard; details: S. aureus 29213, NCCLS standard MIC testing
[6] = test system: S. aureus; test: Frequency of resistant mutants; details: resistance to Rfz
Description: as §2

Compound | decrease in cfu/ml ([1]; Example 1, log-phase) [log] | significant killing ([1]; log-phase dense cultures, Van alone, after 48 hours of treatment) [logs] | killing effect at increased concentration ([1]; log-phase, vancomycin alone 15 μg/ml) | emergence of Rif/Rfz-resistant colonies [2] | viability of the cultures during treatment ([3]; Example 3, stationary-phase, Van alone 15 or 30 μg/ml) | killing effect against stationary phase cultures (summary, words) [3] | log killing of stationary-phase cultures [3] | emergence of Rif-resistant cells ([4]; Example 1, log-phase, Van 10 μg/ml alone or with Rif/Rfz 0.1 μg/ml) | MIC [5] [µg/mL] | drop in cfu/ml (logs killed) ([1]; Example 1, log-phase, 0.1 μg/ml alone, in 4 hours) | reduction of cfu/ml of the culture (cidality) ([1]; Example 2, log-phase, Rfz 0.1 μg/ml (6.5× MIC) alone, within 6 hours) | cfu/ml level after regrowth ([1]; Example 2, log-phase, Rfz alone 0.1 or 0.025 μg/ml, over 48 hours) | reduction of cfu/ml at the lower concentration compared to the higher ([1]; log-phase, Rfz 0.025 μg/ml (1.6× MIC) vs 0.1 μg/ml (6.5× MIC)) | decrease of cfu ([3]; Example 3, stationary-phase, Rfz 0.1 μg/ml alone) | Rif-resistant cfu ([4]; Example 1, log-phase, 0.1 μg/ml alone, in 24 hours) [logs] | appearance of Rif-resistant cfu in log-phase cultures (summary, words) ([4]; log-phase, Rfz single agent or co-treatment with Van) | frequency of mutants [6] | MIC ([5]; Staphylococcus aureus, read-out: MIC) [µg/mL] | Rif-resistant cfu [4] [logs]
CN[C@H](CC(C)C)C(=O)N[C@H]1C(=O)N[C@@H](CC(N)=O)C(=O)N[C@H]2C(=O)N[C@H]3C(=O)N[C@H](C(=O)N[C@H](C(=O)O)c4cc(O)cc(O)c4-c4cc3ccc4O)[C@H](O)c3ccc(c(Cl)c3)Oc3cc2cc(c3O[C@@H]2O[C@H](CO)[C@@H](O)[C@H](O)[C@H]2O[C@H]2C[C@](C)(N)[C@H](O)[C@H](C)O2)Oc2ccc(cc2Cl)[C@H]1O [Van, vancomycin, reference compound] | 0.5 | 3 | sufficient for sustained killing | Resistant colonies did not appear | did not decrease significantly | little or no killing effect | approximately 1 log | little or no increase in the number of Rif-resistant cells |  |  |  |  |  |  |  |  |  |  | 
3′-hydroxy-5′-(4-isobutyl-1-piperazinyl) benzoxazinorifamycin [Rfz] |  |  |  | Resistant colonies did not appear |  | little or no killing effect | approximately 1 log |  | 0.015 | approximately 3.5 logs | approximately 3 logs | approximately 10×10^8 cfu/ml | just as effective; also recorded: as effective as 6.5× the MIC levels | about 1 log | 8 | dramatic increase in Rif-resistant cfu/ml within 10 hours | 10^−8 |  | 
CO[C@H]1/C=C/O[C@@]2(C)Oc3c(C)c(O)c4c(O)c(c(/C=N/N5CCN(C)CC5)c(O)c4c3C2=O)NC(=O)/C(C)=C\C=C\[C@H](C)[C@H](O)[C@@H](C)[C@@H](O)[C@@H](C)[C@H](OC(C)=O)[C@@H]1C [Rif, rifampicin, reference compound] | ~2.5 |  |  |  |  |  |  |  |  |  |  |  |  |  |  |  |  | 0.015 (≈ 0.0182 µM) | 8
